The values that follow come from patent US11419869B2, “Dosage forms and regimens for amino acid compounds” (Pliant Therapeutics, Inc., priority 2019, dated 2022).

For this experiment, the target named is recombinant human integrin αvβ6 (Homo sapiens (Human), UniProt P06756+P18564). In words: Solid Phase Integrin αvβ6 Binding Assay (Examples B1, B2). The note with it: TGFβ1 LAP ligand, values given in four ranges, read-out: αvβ6 Inhibition IC50 (nM)-range. The procedure: (§1) Microplates were coated with recombinant human integrin αvβ6 (2 μg/mL) in PBS (100 μL/well 25° C., overnight). The coating solution was removed, washed with wash buffer (0.05% Tween 20; 0.5 mM MnCl2; in 1×TBS). The plate was blocked with 200 μL/well of Block Buffer (1% BSA; 5% sucrose; 0.5 mM MnCl2; in 1×TBS) at 37° C. for 2 h. Dilutions of testing compounds and recombinant TGFβ1 LAP (0.67 μg/mL) in binding buffer (0.05% BSA; 2.5% sucrose; 0.5 mM MnCl2; in 1×TBS) were added. The plate was incubated for 2 hours at 25° C., washed, and incubated for 1 hour with Biotin-Anti-hLAP. Bound antibody was detected by peroxidase-conjugated streptavidin. The IC50 values for testing compounds were calculated by four-parameter logistic regression.
Sequence of recombinant human integrin αvβ6 (P06756 31-992): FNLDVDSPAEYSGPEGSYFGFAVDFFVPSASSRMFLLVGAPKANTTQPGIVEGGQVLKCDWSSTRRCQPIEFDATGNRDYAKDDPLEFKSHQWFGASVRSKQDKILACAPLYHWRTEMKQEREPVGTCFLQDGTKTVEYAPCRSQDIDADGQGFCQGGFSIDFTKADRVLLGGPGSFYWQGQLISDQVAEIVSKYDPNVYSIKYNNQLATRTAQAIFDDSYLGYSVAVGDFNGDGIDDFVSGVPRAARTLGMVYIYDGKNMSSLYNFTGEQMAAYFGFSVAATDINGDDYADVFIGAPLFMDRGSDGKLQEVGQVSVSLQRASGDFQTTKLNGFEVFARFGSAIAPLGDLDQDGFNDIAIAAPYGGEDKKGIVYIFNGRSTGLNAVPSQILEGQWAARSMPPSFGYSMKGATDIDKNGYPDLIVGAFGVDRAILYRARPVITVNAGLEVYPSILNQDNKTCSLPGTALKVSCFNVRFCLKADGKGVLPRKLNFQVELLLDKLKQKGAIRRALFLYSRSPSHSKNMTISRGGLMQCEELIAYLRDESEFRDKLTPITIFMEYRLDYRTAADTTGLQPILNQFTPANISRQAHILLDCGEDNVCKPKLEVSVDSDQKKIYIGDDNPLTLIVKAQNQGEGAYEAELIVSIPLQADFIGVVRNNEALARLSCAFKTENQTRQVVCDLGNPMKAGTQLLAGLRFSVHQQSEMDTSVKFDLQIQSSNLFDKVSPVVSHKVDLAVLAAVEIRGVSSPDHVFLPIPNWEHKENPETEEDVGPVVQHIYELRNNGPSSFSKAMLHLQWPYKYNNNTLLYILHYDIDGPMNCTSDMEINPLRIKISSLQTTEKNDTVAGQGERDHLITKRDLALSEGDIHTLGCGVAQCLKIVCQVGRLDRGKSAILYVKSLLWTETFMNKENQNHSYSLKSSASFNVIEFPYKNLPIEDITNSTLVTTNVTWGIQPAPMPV
Sequence of recombinant human integrin αvβ6 (P18564 22-707): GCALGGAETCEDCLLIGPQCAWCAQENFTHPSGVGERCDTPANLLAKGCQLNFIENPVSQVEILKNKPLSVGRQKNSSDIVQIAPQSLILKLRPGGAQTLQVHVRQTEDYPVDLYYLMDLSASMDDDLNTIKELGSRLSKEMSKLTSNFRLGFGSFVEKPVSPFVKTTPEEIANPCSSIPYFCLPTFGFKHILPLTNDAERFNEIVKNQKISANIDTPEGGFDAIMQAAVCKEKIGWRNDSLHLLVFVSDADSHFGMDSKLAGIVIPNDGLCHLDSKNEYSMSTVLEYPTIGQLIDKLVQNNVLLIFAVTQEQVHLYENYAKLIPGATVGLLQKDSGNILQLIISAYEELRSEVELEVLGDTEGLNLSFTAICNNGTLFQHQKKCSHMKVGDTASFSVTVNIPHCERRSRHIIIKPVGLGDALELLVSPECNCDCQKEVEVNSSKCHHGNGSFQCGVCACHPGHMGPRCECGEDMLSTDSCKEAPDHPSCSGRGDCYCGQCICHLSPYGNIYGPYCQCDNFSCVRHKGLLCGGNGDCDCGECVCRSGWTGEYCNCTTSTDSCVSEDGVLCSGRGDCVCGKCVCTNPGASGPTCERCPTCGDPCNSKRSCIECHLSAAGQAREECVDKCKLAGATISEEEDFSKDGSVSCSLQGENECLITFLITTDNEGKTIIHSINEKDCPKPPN
The compounds tested were compound samples prepared according to procedures described in the Synthetic Examples section, with the stereochemical purity as indicated in the Examples.
as §1, with “A third series of exemplary compounds was selected for testing in the solid phase integrin αvβ6 binding assay. The compounds tested were compound samples prepared according to procedures described in the Synthetic Examples section, with the stereochemical purity as indicated in the Examples. As in Example B1, microplates were coated” for “Microplates were coated”, “calculated by a four-parameter logistic” for “calculated by four-parameter logistic”
Take `CN(C)C(=O)CN(CCCCc1ccc2c(n1)NCCC2)CC[C@H](Nc1ncnc2ccccc12)C(=O)O` [Compound 64, (S)-4-((2-(dimethylamino)-2-oxoethyl) (4-(5,6,7,8-tetrahydro-1,8-naphthyridin-2-yl)butyl)amino)-2-(quinazolin-4-ylamino) butanoic acid]: the IC50 is < 50 nM.

On to `CO[C@H](C)CN(CCCCc1ccc2c(n1)NCCC2)CC[C@H](Nc1nc(-c2cccnc2)nc2ccccc12)C(=O)O` [Compound 100, (S)-4-(((R)-2-methoxypropyl) (4-(5,6,7,8-tetrahydro-1,8-naphthyridin-2-yl)butyl)amino)-2-((2-(pyridin-3-yl)quinazolin-4-yl)amino) butanoic acid], for which the concentration for half-maximal inhibition (IC50) was < 50 nM.

For `O=C(O)[C@H](CCN(CCCCc1ccc2c(n1)NCCC2)CCOc1ccc(F)cc1)Nc1ncc(C(F)(F)F)cn1` [Compound 139, (S)-4-((2-(4-fluorophenoxy)ethyl) (4-(5,6,7,8-tetrahydro-1,8-naphthyridin-2-yl)butyl)amino)-2-((5-(trifluoromethyl)pyrimidin-2-yl)amino) butanoic acid], the IC50 was < 50 nM.

As for `CO[C@H](C)CN(CCCCc1ccc2c(n1)NCCC2)CC[C@H](Nc1ncc(C2CC2)cn1)C(=O)O` [Compound 124, (S)-2-((5-cyclopropylpyrimidin-2-yl)amino)-4-(((R)-2-methoxypropyl) (4-(5,6,7,8-tetrahydro-1,8-naphthyridin-2-yl)butyl)amino) butanoic acid], the half-inhibitory concentration (IC50) is < 50 nM.

For the compound `Cc1ccc(OCCN(CCCCc2ccc3c(n2)NCCC3)CC[C@H](Nc2nc(C)nc3cc(F)ccc23)C(=O)O)cn1` [Compound 56, (S)-2-((7-fluoro-2-methylquinazolin-4-yl)amino)-4-((2-((6-methylpyridin-3-yl)oxy)ethyl) (4-(5,6,7,8-tetrahydro-1,8-naphthyridin-2-yl)butyl)amino) butanoic acid], the IC50 was < 50 nM.

Regarding `O=C(O)[C@H](CCN(CCCCc1ccc2c(n1)NCCC2)C1CC(F)(F)C1)Nc1ncnc2ccccc12` [Compound 9, (S)-4-((3,3-difluorocyclobutyl) (4-(5,6,7,8-tetrahydro-1,8-naphthyridin-2-yl)butyl)amino)-2-(quinazolin-4-ylamino) butanoic acid], the IC50 is > 1000 nM.

As to `Cn1ncc2c(N[C@@H](CCN(CCCCc3ccc4c(n3)NCCC4)CCOc3ccccc3)C(=O)O)ncnc21` [Compound 82, (S)-2-((1-methyl-1H-pyrazolo[3,4-d]pyrimidin-4-yl)amino)-4-((2-phenoxyethyl) (4-(5,6,7,8-tetrahydro-1,8-naphthyridin-2-yl)butyl)amino) butanoic acid], the IC50 is < 50 nM.

For the compound `COCCN(CCCCc1ccc2c(n1)NCCC2)CC[C@H](Nc1ncnc2c(Cl)cccc12)C(=O)O` [Compound 38, (S)-2-((8-chloroquinazolin-4-yl)amino)-4-((2-methoxyethyl) (4-(5,6,7,8-tetrahydro-1,8-naphthyridin-2-yl)butyl)amino) butanoic acid], the IC50 was < 50 nM.

As for `O=C(O)[C@H](CCN(CCCCc1ccc2c(n1)NCCC2)CCOCC(F)(F)F)Nc1ncnc2ccccc12` [Compound 39, (S)-2-(quinazolin-4-ylamino)-4-((4-(5,6,7,8-tetrahydro-1,8-naphthyridin-2-yl)butyl) (2-(2,2,2-trifluoroethoxy)ethyl)amino) butanoic acid], the 50% inhibitory concentration (IC50) is < 50 nM.

For the compound `O=C(O)[C@H](CCN(CCCCc1ccc2c(n1)NCCC2)CCOc1ccccc1)Nc1ncc(C(F)(F)F)cn1` [Compound 89, (S)-4-((2-phenoxyethyl) (4-(5,6,7,8-tetrahydro-1,8-naphthyridin-2-yl)butyl)amino)-2-((5-(trifluoromethyl)pyrimidin-2-yl)amino) butanoic acid], the IC50 was < 50 nM.

On to `COC[C@@H](F)CN(CCCCc1ccc2c(n1)NCCC2)CC[C@H](Nc1nc(C)nc2ccccc12)C(=O)O` [Compound 46, (S)-4-(((S)-2-fluoro-3-methoxypropyl) (4-(5,6,7,8-tetrahydro-1,8-naphthyridin-2-yl)butyl)amino)-2-((2-methylquinazolin-4-yl)amino) butanoic acid], for which the IC50 is < 50 nM.

As for `O=C(O)[C@H](CCN(CCCCc1ccc2c(n1)NCCC2)CCOC(F)F)Nc1ncnc2ccccc12` [Compound 35, (S)-4-((2-(difluoromethoxy)ethyl) (4-(5,6,7,8-tetrahydro-1,8-naphthyridin-2-yl)butyl)amino)-2-(quinazolin-4-ylamino) butanoic acid], the half-inhibitory concentration (IC50) was < 50 nM.

In the case of `O=C(O)[C@H](CCN(CCCCc1ccc2c(n1)NCCC2)CCOc1ccccc1)Nc1ccnc(C(F)(F)F)n1` [Compound 92, (S)-4-((2-phenoxyethyl) (4-(5,6,7,8-tetrahydro-1,8-naphthyridin-2-yl)butyl)amino)-2-((2-(trifluoromethyl)pyrimidin-4-yl)amino) butanoic acid], the IC50 was < 50 nM.

Take `O=C(O)[C@H](CCN(CCCCc1ccc2c(n1)NCCC2)CCOc1ccccc1)Nc1ncc(C2CC2)cn1` [Compound 117, (S)-2-((5-cyclopropylpyrimidin-2-yl)amino)-4-((2-phenoxyethyl) (4-(5,6,7,8-tetrahydro-1,8-naphthyridin-2-yl)butyl)amino) butanoic acid]: the IC50 was < 50 nM.

In the case of `CS(=O)(=O)CCN(CCCCc1ccc2c(n1)NCCC2)CC[C@H](Nc1ncnc2ccccc12)C(=O)O` [Compound 27, (S)-4-((2-(methylsufonyl)ethyl) (4-(5,6,7,8-tetrahydro-1,8-naphthyridin-2-yl)butyl)amino)-2-(quinazolin-4-ylamino) butanoic acid], the half-inhibitory concentration (IC50) was < 50 nM.

Consider `COCCN(CCCCc1ccc2c(n1)NCCC2)CC[C@H](Nc1ncnc2cccnc12)C(=O)O` [Compound 16, (S)-4-((2-methoxyethyl) (4-(5,6,7,8-tetrahydro-1,8-naphthyridin-2-yl)butyl)amino)-2-(pyrido[3,2-d]pyrimidin-4-ylamino) butanoic acid], for which the 50% inhibitory concentration (IC50) was < 50 nM.

In the case of `CO[C@H](C)CN(CCCCc1ccc2c(n1)NCCC2)CC[C@H](Nc1ncnc2[nH]ncc12)C(=O)O` [Compound 71, (S)-2-((1H-pyrazolo[3,4-d]pyrimidin-4-yl)amino)-4-(((R)-2-methoxypropyl) (4-(5,6,7,8-tetrahydro-1,8-naphthyridin-2-yl)butyl)amino) butanoic acid], the IC50 was < 50 nM.

`COCCN(CCCCc1ccc2c(n1)NCCC2)CC[C@H](Nc1ncnc2cnccc12)C(=O)O` [Compound 17, (S)-4-((2-methoxyethyl) (4-(5,6,7,8-tetrahydro-1,8-naphthyridin-2-yl)butyl)amino)-2-(pyrido[3,4-d]pyrimidin-4-ylamino) butanoic acid]: the IC50 is < 50 nM.

With `CO[C@H](C)CN(CCCCc1ccc2c(n1)NCCC2)CC[C@H](Nc1nc(C)nc2cc(F)ccc12)C(=O)O` [Compound 65, (S)-2-((7-fluoro-2-methylquinazolin-4-yl)amino)-4-(((R)-2-methoxypropyl) (4-(5,6,7,8-tetrahydro-1,8-naphthyridin-2-yl)butyl)amino) butanoic acid], the IC50 was < 50 nM.

Regarding `CN(C)C(=O)CN(CCCCc1ccc2c(n1)NCCC2)CC[C@H](Nc1ccnc(C(F)(F)F)n1)C(=O)O` [Compound 145, (S)-4-((2-(dimethylamino)-2-oxoethyl) (4-(5,6,7,8-tetrahydro-1,8-naphthyridin-2-yl)butyl)amino)-2-((2-(trifluoromethyl)pyrimidin-4-yl)amino) butanoic acid], the IC50 is < 50 nM.

Take `Cc1nc(N[C@@H](CCN(CCCCc2ccc3c(n2)NCCC3)CCOC2CC2(F)F)C(=O)O)c2ccc(F)cc2n1` (stereo partly drawn) [Compound 42, (2S)-4-((2-(2,2-difluorocyclopropoxy)ethyl) (4-(5,6,7,8-tetrahydro-1,8-naphthyridin-2-yl)butyl)amino)-2-((7-fluoro-2-methylquinazolin-4-yl)amino) butanoic acid]: the half-maximal inhibitory concentration (IC50) was < 50 nM.

`CO[C@H](C)CN(CCCCc1ccc2c(n1)NCCC2)CC[C@H](Nc1ncc(C(F)(F)F)cn1)C(=O)O` [Compound 69, (S)-4-(((R)-2-methoxypropyl) (4-(5,6,7,8-tetrahydro-1,8-naphthyridin-2-yl)butyl)amino)-2-((5-(trifluoromethyl)pyrimidin-2-yl)amino) butanoic acid]: the IC50 was < 50 nM.

For the compound `Cn1ncc2c(N[C@@H](CCN(CCCCc3ccc4c(n3)NCCC4)CCOc3ccc(F)cc3)C(=O)O)ncnc21` [Compound 123, (S)-4-((2-(4-fluorophenoxy)ethyl) (4-(5,6,7,8-tetrahydro-1,8-naphthyridin-2-yl)butyl)amino)-2-((1-methyl-1H-pyrazolo[3,4-d]pyrimidin-4-yl)amino) butanoic acid], the IC50 is < 50 nM.
